Results published in US20220105157A1, “Compositions and Methods for Promoting Angiogenesis in the Eye” (The Regents of the University of California, priority 2019, published 2022).
Residues, ends and D or L forms follow the SMILES beside them. *: point of attachment. Cbz = O=C(OCc1ccccc1)*; CH2F = FC*

Key:
[1] = system: bovine aortic endothelial (BAE) cells; assay: BAE endothelial cell proliferation assay (alamar blue); assay type: cell-based; settings: for rescue of the cell death phenotype induced by LIF: BAE cells, co-incubation with inhibitor; for reversal of LIF-induced growth inhibition in BAE cells: pre-incubation with inhibitor 1 hour, LIF 10 ng/ml, 6 days
Method: (§1) The bovine endothelial proliferation assays were performed essentially as previously described (63, 64). BCE (1×10^3 cells/well) or BRE (5×10^2 cells/well) cells were seeded in 96-well plates in the culture medium (DMEM-low glucose supplemented with 10% BCS, 2 mM glutamine and antibiotics) plus testing materials with a total volume of 200 μl per well. BAE cells were plated in 96-well plates at a density of 2×10^3 cells in the culture medium (DMEM-low glucose supplemented with 1% BCS and antibiotics) plus testing material with a total volume of 200 μl per well. HRME cells were seeded at a density of 1×10^3 cells/well in gelatin-coated 96-well plates in assay medium (DMEM-low glucose supplemented with 20% FBS and antibiotics) plus testing materials to make a total volume 200 μl per well. For assays involving antibodies or small-molecule inhibitors, inhibitors or vehicle controls were first added and then test materials were added one hour later. After 6 days (unless otherwise specified), cells were incubated with alamar blue for 4 h. Fluorescence was measured at 530 nm excitation wavelength and 590 nm emission wavelength. Each experiment was carried out in duplicate/triplicate and repeated at least three times.

[2] = system: bovine choroidal endothelial (BCE) cells; assay: BCE endothelial cell proliferation assay (alamar blue); assay type: cell-based; parameters: key to BCE cell growth normalized to the vehicle control group: ns, not statistically significant; settings: for effect on LIF-induced BCE cell growth: pre-incubation with inhibitor 1 hour, LIF 10 ng/ml, 6 days; for BCE cell growth normalized to the vehicle control group: day 6, n = 3
Method: as §1

[3] = system: phosphorylation of STAT3, ERK and AKT in BCE cells; assay: Western blotting of LIF signaling in BCE cells; assay type: cell-based, bovine; settings: pre-incubation 1 hour (baricitinib 2 μM, cobimetinib 150 nM, BEZ235 5 nM); for effect on AKT phosphorylation: with or without LIF 10 ng/ml 15 minutes
Method: (§2) BCE and BAE cells were cultured in growth medium overnight. Growth medium was removed and then cells were washed twice with PBS. Recombinant human LIF was added to cells for 15 minutes, following 3-hour incubation in the following medium: DMEM-low glucose supplemented with 10% BCS, 2 mM glutamine and antibiotics for BCE cells, and DMEM-low glucose supplemented with 1% BCS and antibiotics for BAE cells. […] Cells were then lysed with RIPA lysis buffer (Life Technologies, CAT #89901) plus protease and phosphatase inhibitor cocktail (ThermoFisher Scientific CAT #78440). Protein concentrations in cell lysates were measured with the BCA assay (ThermoFisher Scientific CAT #23227). Equal amount of proteins were subjected to electrophoresis in NuPAGE 4-12% Bis-Tris gels (ThermoFisher Scientific, CAT #NW04125BOX) and then transferred onto PVDF membranes. Membranes were blocked with 5% non-fat milk in TBST at room temperature for 1 hour, incubated with primary antibodies indicated below in TBST containing 0.5% non-fat milk at 4° C. overnight then with secondary HRP-conjugated antibodies (1:2000, GE Healthcare) at room temperature for 1 h. Signals were developed with SuperSignal™ West Pico PLUS Chemiluminescent Substrate (ThermoFisher Scientific). Primary antibodies used: anti-phospho-STAT3 (Cell Signaling, CAT #9131, 1:3000), anti-STAT3 (Cell Signaling, CAT #4904, 1:3000), anti-phospho-ERK (Cell Signaling, CAT #4376, 1:5000), anti-ERK (Cell Signaling, CAT #4695, 1:5000), anti-phospho-AKT Ser473 (Cell Signaling, CAT #4060, 1:2000), anti-AKT (Cell Signaling, CAT #4691, 1:2000) and HRP-conjugated anti-beta-actin (Sigma, CAT #AC-15, 1; 10000).

[4] = system: phosphorylation of STAT3, ERK and AKT in BAE cells; assay: Western blotting of LIF signaling in BAE cells; assay type: cell-based, bovine; settings: pretreatment 1 hour (baricitinib 2 μM, cobimetinib 150 nM, BEZ235 5 nM), LIF 10 ng/ml 15 minutes
Method: as §2

[5] = system: retinal vasculature of mouse eyes; assay: Intravitreal injection of recombinant proteins in mouse eyes, retinal vessel density; assay type: in vivo; settings: after exposure to 95° C. for 2 hours
Method: Male C57BL/6J mice (6-8 week and P5) were anesthetized with ketamine/Xylazine cocktail. The indicated amounts of recombinant LIF (Sigma, CAT #SRP9001) in 1 μl of PBS and PBS vehicle control were injected intravitreally with a 33-gauge Hamilton syringe. Seven (for adult mice) or 3 (for neonatal mice) days after injection, animals were euthanized, eyes were then enucleated and fixed in 4% paraformaldehyde (PFA) for 15 min. Choroid-sclera complexes and retinas were separated and anti-CD31 immunofluorescence (IF) or lectin labeling was performed to evidence the vasculature by whole mount staining of both retina and choroidal tissues or flat-mounts of retina. For CD31 IF, rat anti-mouse antibody (BD Biosciences, CAT #550274) was diluted 1:100 and incubated overnight at 4° C. After 4-hour incubation with the Alexa Fluor-488-conjugated anti-rat antibody (Life Technologies, CAT #A11006), whole mounts were imaged via the 488 nm channel using Keyence Microscope BZ-X710 (Keyence Corporation, Osaka, Japan) or A1R Confocal STORM super-resolution system (Nikon). For lectin staining, Dylight-488-labeled lectin (Vector Laboratories, CAT #DL-1174) was diluted at 1:200 and images were obtained using A1R Confocal STORM super-resolution system (Nikon). For Quantification of vascular density in choroids and retina was carried out by Image J. Student's t test was used for statistical analysis. Each experiment was repeated three times with similar results each time, and each treatment group consists of 4 or 5 individual samples in every experiment. All animal experimental procedures were approved by the Institutional Animal Care and Use Committee (IACUC) of the University of California San Diego and conducted in accordance with the guidelines of the Animal Care Program (ACP).
Optical coherence tomography angiography (OCTA) imaging of the retina of adult mice was performed 7 days after LIF injection, using a 1300 nm optical coherence tomography (OCT) system developed by Dr. R. K. Wang's group at University of Washington Seattle, in agreement with previously described methodology (66). Briefly, the swept laser operated in single longitude mode with a 90 nm bandwidth centered at 1300 nm and 200 kHz A-line rate was used to scan mouse retina and to generate images of vasculature in a field of view of 1.5×1.5 mm^2. 2500 B-frames were captured at 500 cross-sections with five repeated B-frames at each cross-section. To quantify the retinal vascular density, retinal and choroidal layers in 3D structure OCT scans were separated by the hyper-reflecting retinal pigment epithelium (RPE). Then the en face maximum intensity projection was generated. The vessel density was then determined by calculating the percentages of vessel-covered area in total area of view using the ImageJ software.

## COC(=O)CC[C@H](NC(=O)[C@H](CC(=O)OC)NC(=O)OCc1ccccc1)C(=O)N[C@H](C(=O)N[C@@H](CC(=O)OC)C(=O)CF)C(C)C [Z-DEVD-fmk, Z-DEVD-FMK]
[1]
  rescue of the cell death phenotype induced by LIF: not able rescue

## O=C(c1ccc(F)c(F)c1Nc1ccc(I)cc1F)N1CC(O)([C@@H]2CCCCN2)C1 [cobimetinib]
[2]
  effect on LIF-induced BCE cell growth: minimal effects
[3]; then LIF 10 ng/ml 15 minutes
  effect on LIF-induced phosphorylation of ERK MAPK: blocked
  effect on LIF-induced phosphorylation of STAT3: no effects
[3]
  effect on AKT phosphorylation: no effects
[4]
  effect on LIF-induced phosphorylation of ERK: effectively repressed

## CCCNC(=O)[C@H]1O[C@@H]1C(=O)N[C@H](C(=O)N1CCC[C@H]1C(=O)OC)[C@@H](C)CC [CA074me, CA-074 me]
[1]
  reversal of LIF-induced growth inhibition in BAE cells: alleviated LIF-induced growth inhibition

## COC(=O)C[C@H](NC(=O)[C@@H](NC(=O)c1ccc2ccccc2n1)C(C)C)C(=O)COc1c(F)cccc1F [Q-VD-OPH, Q-VD(OMe)-OPh]
[1]
  rescue of the cell death phenotype induced by LIF: not able rescue

## CCCNC(=O)[C@H]1O[C@@H]1C(=O)N[C@H](C(=O)N1CCC[C@H]1C(=O)O)[C@@H](C)CC [CA074, CA-074]
[1]; even at the highest dose tested, 50 μM
  suppression of LIF-induced effects in BAE cells: not able to suppress

## COC(=O)C[C@H](NC(=O)[C@H](C)NC(=O)[C@@H](NC(=O)OCc1ccccc1)C(C)C)C(=O)CF [Z-VAD-fmk, Z-VAD-FMK] (Cbz-Val-Ala-Asp(OMe)-CH2F)
[1]
  rescue of the cell death phenotype induced by LIF: not able rescue

## PDGF-AA: recombinant human PDGF-AA
[2]
  stimulation of BCE cell growth (mitogenic activity): fail to stimulate BCE cell growth
[2]; 1 ng/ml
  BCE cell growth normalized to the vehicle control group: ns
[2]; 3 ng/ml
  BCE cell growth normalized to the vehicle control group: ns
[2]; 10 ng/ml
  BCE cell growth normalized to the vehicle control group: ns
[2]; 30 ng/ml
  BCE cell growth normalized to the vehicle control group: ns
[2]; 100 ng/ml
  BCE cell growth normalized to the vehicle control group: ns
[2]; 300 ng/ml
  BCE cell growth normalized to the vehicle control group: ns

## IGFBP3: recombinant IGFBP3, a secreted protein previously shown to be an angiogenesis inhibitor
[1]
  BAE cell growth: had no effects

## O=C(NCc1ccccc1)[C@H](Cc1ccccc1)NC(=O)[C@@H]1O[C@@H]1C(=O)NCCc1ccc(O)cc1 [CAA0225]
[1]
  reversal of LIF-induced growth inhibition in BAE cells: repressed LIF-induced growth inhibition in BAE cells although by less extent

## Cn1c(=O)n(-c2ccc(C(C)(C)C#N)cc2)c2c3cc(-c4cnc5ccccc5c4)ccc3ncc21 [BEZ235, reference compound]
[2]
  effect on LIF-induced BCE cell growth: no effect
[3]
  effect on AKT phosphorylation: only moderate effects
[4]
  effect on LIF-induced phosphorylation of AKT: effectively repressed

## Cl.Nc1cccc2c(=O)[nH]ccc12 [5-AIQ, 5-AIQ hydrochloride]
[1]
  rescue of the cell death phenotype induced by LIF: not able rescue

## IL-8: recombinant human IL-8
[2]
  stimulation of BCE cell growth (mitogenic activity): fail to stimulate BCE cell growth
[2]; 1 ng/ml
  BCE cell growth normalized to the vehicle control group: ns
[2]; 3 ng/ml
  BCE cell growth normalized to the vehicle control group: ns
[2]; 10 ng/ml
  BCE cell growth normalized to the vehicle control group: ns
[2]; 30 ng/ml
  BCE cell growth normalized to the vehicle control group: ns
[2]; 100 ng/ml
  BCE cell growth normalized to the vehicle control group: ns
[2]; 300 ng/ml
  BCE cell growth normalized to the vehicle control group: ns

## heat-inactivated LIF: recombinant LIF heat-inactivated by exposure to 95° C. for 2 hours
[2]; after exposure to 95° C. for 2 hours
  ability to promote mitogenesis in vitro: abolished
[5]
  ability to promote angiogenesis in vivo: abolished
